The values below come from patent US11236046B2, “Substituted heterocyclic sulfonamide compounds useful as TRPA1 modulators” (Genentech, Inc., priority 2013, dated 2022).

The target in the first assay is T1, human TRPA1 (Homo sapiens (Human), UniProt O75762). The assay can be described thus: FLIPR Tetra calcium influx assay, block of cinnamaldehyde-induced calcium influx in CHO cells expressing TRPA1 (human). The format is cell-based. The conditions noted are these: 20 min compound incubation, 75 uM cinnamaldehyde (~EC80), Hill coefficient fixed to 1.5, read-out: hTRPA1 AUC IC50. The method in brief: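 CHO cells loaded with calcium dye, preincubated with compounds 20 min at room temperature in HBSS/20 mM HEPES pH 7.4 with 0.02% BSA. Channels activated by ~EC80 cinnamaldehyde (75 uM human, 45 uM rat); block of calcium influx read on FLIPR Tetra, IC50 fitted with fixed Hill coefficient.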
T1 sequence (O75762 whole entry): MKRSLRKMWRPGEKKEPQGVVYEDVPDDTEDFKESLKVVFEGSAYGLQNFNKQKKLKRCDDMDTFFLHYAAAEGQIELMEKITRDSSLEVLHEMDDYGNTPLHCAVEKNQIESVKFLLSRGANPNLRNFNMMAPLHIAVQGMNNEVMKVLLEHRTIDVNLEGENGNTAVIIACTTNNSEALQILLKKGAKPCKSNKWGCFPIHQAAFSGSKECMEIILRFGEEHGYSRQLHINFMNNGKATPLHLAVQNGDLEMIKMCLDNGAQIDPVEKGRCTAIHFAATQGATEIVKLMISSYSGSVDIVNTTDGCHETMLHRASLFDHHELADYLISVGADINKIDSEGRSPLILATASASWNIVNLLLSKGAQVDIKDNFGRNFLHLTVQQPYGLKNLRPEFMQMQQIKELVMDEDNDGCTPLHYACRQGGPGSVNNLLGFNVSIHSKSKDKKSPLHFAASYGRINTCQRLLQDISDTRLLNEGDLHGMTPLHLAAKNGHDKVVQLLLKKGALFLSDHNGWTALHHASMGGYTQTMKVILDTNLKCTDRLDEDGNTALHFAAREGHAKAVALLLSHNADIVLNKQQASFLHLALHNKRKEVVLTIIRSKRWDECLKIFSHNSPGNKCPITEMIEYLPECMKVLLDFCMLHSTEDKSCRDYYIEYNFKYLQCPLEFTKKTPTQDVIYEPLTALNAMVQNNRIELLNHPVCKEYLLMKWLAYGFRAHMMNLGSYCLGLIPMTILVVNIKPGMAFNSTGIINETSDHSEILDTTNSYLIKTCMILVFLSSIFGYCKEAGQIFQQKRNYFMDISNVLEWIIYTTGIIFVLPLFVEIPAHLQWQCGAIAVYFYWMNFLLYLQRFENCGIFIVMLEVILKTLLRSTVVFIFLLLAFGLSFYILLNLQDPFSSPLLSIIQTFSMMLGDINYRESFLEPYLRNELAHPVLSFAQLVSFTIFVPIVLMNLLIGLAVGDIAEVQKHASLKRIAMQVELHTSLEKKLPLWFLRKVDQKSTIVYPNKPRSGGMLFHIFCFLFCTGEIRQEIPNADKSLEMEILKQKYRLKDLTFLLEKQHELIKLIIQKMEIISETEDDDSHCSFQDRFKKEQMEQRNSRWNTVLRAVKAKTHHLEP
For the molecule `O=C(NCc1cc(-c2cnc(C(F)(F)F)nc2)c(Cl)cn1)[C@@H]1C[C@@H](F)CN1S(=O)(=O)c1ccc(F)cc1` [Example 192, (2S,4R)—N-([5-chloro-4-[2-(trifluoromethyl)pyrimidin-5-yl]pyridin-2-yl]methyl)-4-fluoro-1-[(4-fluorobenzene)sulfonyl]pyrrolidine-2-carboxamide], the concentration for half-maximal inhibition (IC50) turned out to be 42 nM.
Still for that read-out and setting: the value for `C[C@H]1[C@H](F)C[C@@H](C(=O)NCc2ccnc(-c3cnc(C(F)(F)F)nc3)c2)N1S(=O)(=O)c1ccc(F)cc1` [Example 193, (2S,4R,5S)-4-fluoro-1-[(4-fluorobenzene)sulfonyl]-5-methyl-N-([2-[2-(trifluoromethyl)pyrimidin-5-yl]pyridin-4-yl]methyl)pyrrolidine-2-carboxamide] was 15 nM; that for `CC1(C)CC[C@@H](C(=O)NCc2cc(-c3ccc(C(F)(F)F)nc3)ncn2)N1S(=O)(=O)c1ccc(F)cc1` [Example 194, (2S)-1-(4-fluorophenyl)sulfonyl-5,5-dimethyl-N-[[6-[6-(trifluoromethyl)-3-pyridyl]pyrimidin-4-yl]methyl]pyrrolidine-2-carboxamide] was 381 nM.
Still for that read-out and setting: the value for `O=C(NCc1cncc(-c2cnc(C(F)(F)F)nc2)c1)[C@@H]1C[C@@H](F)CN1S(=O)(=O)c1ccc(F)cc1` [Example 195, (2S,4R)-4-fluoro-1-(4-fluorophenyl)sulfonyl-N-[[5-[2-(trifluoromethyl)pyrimidin-5-yl]-3-pyridyl]methyl]pyrrolidine-2-carboxamide] was 795 nM; that for `COc1cnc(-c2cnc(C(F)(F)F)nc2)cc1CNC(=O)[C@@H]1C[C@@H](F)CN1S(=O)(=O)c1ccc(F)cc1` [Example 196, (2S,4R)-4-fluoro-1-(4-fluorophenylsulfonyl)-N-((5-methoxy-2-(2-(trifluoromethyl)pyrimidin-5-yl)pyridin-4-yl)methyl)pyrrolidine-2-carboxamide] was 134 nM.
The same measure, in the same setting: with `O=C(NCc1cn(-c2ccc(C(F)(F)F)cc2)nc1Cl)[C@@H]1CCN1S(=O)(=O)c1ccc(F)cc1` [Example 197, (2S)—N-([3-chloro-1-[4-(trifluoromethyl)phenyl]-1H-pyrazol-4-yl]methyl)-1-[(4-fluorobenzene)sulfonyl]azetidine-2-carboxamide] the figure was 15 nM; with `C[C@@]1(C(=O)NCc2cc(-c3ccc(C(F)(F)F)nc3)ncn2)CCN1S(=O)(=O)c1ccc(F)cc1` [Example 198, (S)-1-(4-fluorophenylsulfonyl)-2-methyl-N-((6-(6-(trifluoromethyl)pyridin-3-yl)pyrimidin-4-yl)methyl)azetidine-2-carboxamide], 59 nM.
For `O=C(NCc1cn(-c2ccc(C(F)(F)F)nc2)nc1Cl)[C@@H]1CCN1S(=O)(=O)c1ccc(F)cc1` [Example 199, (2S)—N-([3-chloro-1-[6-(trifluoromethyl)pyridin-3-yl]-1H-pyrazol-4-yl]methyl)-1-[(4-fluorobenzene)sulfonyl]azetidine-2-carboxamide], the IC50 stood at 138 nM.
The same measure, in the same setting: with `C[C@@H]1C[C@@H](C(=O)NCc2cc(-c3ccc(C(F)(F)F)nc3)ncn2)N1S(=O)(=O)c1ccc(F)cc1` [Example 200, (2S,4R)-1-[(4-fluorobenzene)sulfonyl]-4-methyl-N-([6-[6-(trifluoromethyl)pyridin-3-yl]pyrimidin-4-yl]methyl)azetidine-2-carboxamide] the figure was 333 nM; with `O=C(NCc1cc(-c2ccc(C(F)(F)F)nc2)ncn1)[C@@H]1CCN1S(=O)(=O)c1ccc(F)cc1` [Example 201, (S)-1-(4-fluorophenylsulfonyl)-N-((6-(6-(trifluoromethyl)pyridin-3-yl)pyrimidin-4-yl)methyl)azetidine-2-carboxamide], 268 nM.
The same measure, in the same setting: with “(2S,4R)-4-fluoro-1-(4-fluorophenyl)sulfonyl-N-[[3-fluoro-5-[2-(trifluoromethyl)thiazol-5-yl]phenyl]methyl]pyrrolidine-2-carboxamide [Example 174]” the figure was 12 nM; with “(2S,4R)-4-fluoro-N-[[5-fluoro-4-[5-fluoro-6-(trifluoromethyl)-3-pyridyl]-2-pyridyl]methyl]-1-(4-fluorophenyl)sulfonyl-pyrrolidine-2-carboxamide [Example 65]”, 40 nM.

The next assay deals with T1, human TRPA1. Put plainly: IC50 determination on the human TRPA1 channel, calcium fluorescence (Hamamatsu FDSS plate reader). The format is cell-based. The conditions noted are these: CHO cells expressing human TRPA1; block of cinnamaldehyde induced calcium influx; 20 minutes compound incubation; Hill coefficient fixed to 1.5; read-out: hTRPA1 AUC IC50. The method, then: IC50s (effective concentration) of compounds on the human TRPA1 channel were determined using a Hamamatsu FDSS fluorescence plate reader. CHO cells expressing human TRPA1 were plated into 384-well plates, incubated overnight at 37 C, and loaded with BD calcium indicator dye for 1 hr at 37° C. followed by 15 minutes. at room temperature. The assay buffer was Hank's Balanced Salt Solution (HBSS) containing 20 mM HEPES (pH readjusted to 7.4) along with 0.02% BSA.
Following dye load and plate cool down, compounds were added to the cells using the FDSS while monitoring fluorescence to determine whether any of the test compounds have TRPA1 agonist activity. Plates were then incubated with compound for 20 minutes at room temperature prior to adding agonist. Following this incubation, […] cinnamaldehyde was added to all wells of the plate and block of this cinnamaldehyde induced calcium influx was measured.
Fixing the Hill coefficient will generally reduce variability of the IC50 determination. The IC50s were examined by eye to make sure the MIN and MAX points were set correctly prior to validation of the results.
Regarding `C[C@@]1(C(=O)NCc2cc(-c3ccc(C(F)(F)F)nc3)ncn2)C[C@@H](F)CN1S(=O)(=O)c1ccc(F)cc1` (single isomer, unassigned) [Example 19], the half-maximal inhibitory concentration (IC50) stood at 16 nM.
On the same count and under the same terms, the value for `C[C@@]1(C(=O)NCc2cc(-c3ccc(C(F)(F)F)cc3)ncn2)C[C@@H](F)CN1S(=O)(=O)c1ccc(F)cc1` (single isomer, unassigned) [Example 20] was 7 nM; that for `C[C@@]1(C(=O)NCc2cc(-c3ccc(C(F)(F)F)nc3)ncn2)CCCN1S(=O)(=O)c1ccc(F)cc1` [Example 1, (S)-1-(4-fluorophenylsulfonyl)-2-methyl-N-((6-(6-(trifluoromethyl)pyridin-3-yl)pyrimidin-4-yl)methyl)pyrrolidine-2-carboxamide] was 51 nM; that for `C[C@@]1(C(=O)NCc2cc(-c3ccc(C(F)(F)F)nc3)ncn2)CCN1S(=O)(=O)c1ccc(F)cc1` [Example 2, (S)-1-(4-fluorophenylsulfonyl)-2-methyl-N-((6-(6-(trifluoromethyl)pyridin-3-yl)pyrimidin-4-yl)methyl)azetidine-2-carboxamide] was 59 nM.
The same measure, in the same setting: the value for `O=C(NCc1cc(-c2ccc(C(F)(F)F)nc2)ncn1)[C@@H]1C[C@@H](F)CN1S(=O)(=O)c1ccc(F)cc1` [Example 3, (2S,4R)-4-fluoro-1-(4-fluorophenylsulfonyl)-N-((6-(6-(trifluoromethyl)pyridin-3-yl)pyrimidin-4-yl)methyl)pyrrolidine-2-carboxamide] was 97 nM; that for `O=C(NCc1cc(-c2ccc(C(F)(F)F)nc2)ncn1)[C@@H]1C[C@H](F)CN1S(=O)(=O)c1ccc(F)cc1` [Example 4, (2S,4S)-4-fluoro-1-(4-fluorophenylsulfonyl)-N-((6-(6-(trifluoromethyl)pyridin-3-yl)pyrimidin-4-yl)methyl)pyrrolidine-2-carboxamide] was 819 nM; that for `O=C(NCc1cc(-c2ccc(C(F)(F)F)cc2)ncn1)[C@@H]1C[C@@H](F)CN1S(=O)(=O)c1ccc(F)cc1` [Example 5, (2S,4R)-4-fluoro-1-(4-fluorophenylsulfonyl)-N-((6-(4-(trifluoromethyl)phenyl)pyrimidin-4-yl)methyl)pyrrolidine-2-carboxamide] was 15 nM.
With `O=C(NCc1cc(-c2ccc(C(F)(F)F)cc2)ncn1)[C@@H]1C[C@@H](F)CN1S(=O)(=O)c1cccc(F)c1` [Example 6, (2S,4R)-4-fluoro-1-(3-fluorophenylsulfonyl)-N-((6-(4-(trifluoromethyl)phenyl)pyrimidin-4-yl)methyl)pyrrolidine-2-carboxamide], the IC50 stood at 23 nM.
Still for that read-out and setting: the value for `O=C(NCc1cc(-c2ccc(C(F)(F)F)nc2)ncn1)[C@]1(CO)CCCN1S(=O)(=O)c1ccc(F)cc1` [Example 7, (R)-1-(4-fluorophenylsulfonyl)-2-(hydroxymethyl)-N-((6-(6-(trifluoromethyl)pyridin-3-yl)pyrimidin-4-yl)methyl)pyrrolidine-2-carboxamide] was 284 nM.
